In US4132738A, “Preparation of 15-deoxy-16-hydroxyprostaglandins” (Miles Laboratories, Inc., priority 1978, dated 1979):

Experiments:
Details in all cases: comparison in words
[1] = system: rat stomach; test: Cascade assay, rat stomach fundus in vitro; type: cell-based
Description: (§1) The smooth muscle stimulant effects of the test compounds were determined simultaneously in four different tissues that are known to be reactive to naturally occurring prostaglandins. Segments of rat stomach fundus, rat colon, chick rectum and rabbit aortic strip were obtained as described by: Vane, J. R., Brit. J. Pharmacol., 12: 344 (1957); Regoli, D. and Vane, J. R., Brit. J. Pharmacol., 23: 351 (1964); Mann, M. and West, G. B., Brit. J. Pharmacol., 5: 173 (1950); and Furchgott, R. F. and Bhadrakom, R., J. Pharmacol. Exper. Ther., 108: 129 (1953). One end of each preparation was tied to the bottom of a 10 ml tissue chamber and the other to a force displacement transducer (Grass FT-03) for continuous tension recording. The stomach, colon, and rectum segments were stretched to an initial tension of 1 g, while the aortic strip was subjected to 4 g. All preparations were left undisturbed for 1 hour prior to ptesting. The chambers were equipped with an external jacket through which water, maintained at 40° C., was circulated. […]
(§2) Test compounds were diluted from stock solutions so as to administer quantities ranging from 0.0001 to 100,000 ng in a volume of 0.5 ml. […] Maximal increases in tension after each dose were measured and the results were used to plot dose-response curves. […]
(§3) Activity in each tissue was scored according to the following scale: […]

[2] = system: rat colon; test: Cascade assay, rat colon in vitro; type: cell-based
Description: as §1, §2, §3

[3] = system: blood pressure and heart rate in the anesthetized cat; test: Effects on blood pressure and heart rate in the anesthetized cat; type: in vivo
Description: The acute effects of test compounds on blood pressure and heart rate were determined in cats of either sex anesthetized with a mixture of pentobarbital sodium (35 mg/kg, i.v.) and barbital sodium (100 mg/kg, i.v.). Cannulas were placed in the trachea to allow adequate spontaneous ventilation, in a femoral artery for blood pressure recording with a strain gage transducer, and in a saphenous vein for drug administration.
Heart rate was recorded by means of a cardiotachometer driven by the R wave of the electrocardiogram. After a period of 10 minutes of stable recordings of blood pressure and heart rate, the test compound was administered intravenously at doses increasing from 0.01 to 10.0 mcg/kg, spaced one log and injected at 10 minute intervals. All doses were injected in a volume of 0.1 ml/kg. Modifications of blood pressure and heart rate induced by the test compound were expressed both in absolute units (mmHg and beats/minute) and as percent of values recorded immediately before administration of each dose. Biphasic responses were tabulated in the order in which they occurred. […]
Activity of compounds in this test was judged only on the basis of the degree of hypotension observed. Thus, the ED50 mmHg (dose decreasing blood pressure by 50 mmHg) was calculated graphically, and the compound scored according to the following scale: […]

[4] = system: rat stomach, rat colon, chick rectum, and rabbit aorta; test: Cascade assay, all four tissues; type: cell-based
Description: as §1, §2, §3

Structure (SMILES) | Cascade stomache value, methyl ester versus carbinol [1] | Cascade colon value, methyl ester versus carbinol [2] | Feline blood pressure and heart rate value, methyl ester versus carbinol [3] | Cascade values, methyl ester versus carbinol [4]
CCCCC(O)C/C=C/[C@H]1[C@H](O)CC(=O)[C@@H]1CCCCCCC(=O)OC (stereo partly drawn) [TR 4705, Methyl 11α, 16RS-dihydroxy-9-oxoprost-13E-en-1-oate, reference compound] | higher | higher | – | –
CCCCC(C)(O)C/C=C/[C@H]1[C@H](O)CC(=O)[C@@H]1CCCCCCC(=O)OC (stereo partly drawn) [TR 4704, Methyl 11α, 16RS-dihydroxy-16-methyl-9-oxoprost-13E-oate, reference compound] | – | – | significantly and undesirably higher | significantly and undesirably higher
